From patent publication US8404825B2, “Method for producing monoterpene and monoterpinoid compounds and use thereof” (Board of Regents of the Nevada System of Higher Education, …, priority 2008, dated 2013)

Assays:
recombinant Ipi12D04 = test: Functional assay of recombinant Ipi12D04 (pyridine nucleotide assay at 340 nm, GC-MS of products); format: biochemical, Ips pini; conditions: for reaction product of reduction by Ipi12D04 enzyme (stereoisomer by chiral GC): in the presence of NADPH, chiral column, compared with racemic standard
Procedure: Enzyme activity is determined by a pyridine nucleotide (PN) binding assay that monitors production or consumption of NADH/NADPH by measuring the absorbance of the catalysts reaction at 340 nm using a spectrophotometer. The reactions include reaction buffer (0.1 M NaP pH 7.8 and 1.1 mM EDTA), enzyme, PN, and substrate (monoterpene) in a 1 ml total volume and the absorbance was measured over time at room temperature. The volatiles produced from the reactions were extracted three times with pentane:ether (1:1) spiked with 200 n g/ml n-octanol (internal standard) and concentrated to approximately 100 ul with nitrogen gas. The samples were directly analyzed by coupled GC-MS at the Nevada Proteomics Center at UNR.
Enzyme activity was determined by a pyridine nucleotide (PN) binding assay that monitored production or consumption of NADH/NADPH spectrophotometrically. The reaction mixture included reaction buffer (0.1 M NaP pH 7.8 and 1.1 mM EDTA), enzyme, PN, and substrate (monoterpene) in a 1 ml total volume. The absorbance was measured over time at room temperature. The reactions were extracted three times with pentane:ether (1:1) spiked with 200 ng/ml n-octanol (internal standard) to extract monoterpenoids and concentrated to approximately 100 ul with nitrogen gas. The samples were directly analyzed by coupled GC-MS at the Nevada Proteomics Center at UNR.
Biochemical reactions catalyzed by recombinant Ipi12D04, as determined by functional assays, are summarized below. In general, the enzyme functions as an oxidoreductase, using NAD(P) or NAD(P)H as cofactors, depending on whether it is oxidizing or reducing a substrate. […] Negative controls for all reactions included media from un-infected cells.

[1] = test system: western populations of Ips pini; conditions: cited from earlier work
Ips. typographus = conditions: cited from earlier work
I. calligraphus = conditions: southeast U.S.; cited from earlier work

**Q.** Which “reaction product of reduction by Ipi12D04 enzyme (stereoisomer by chiral GC)” value (recombinant Ipi12D04) does the source give for C=CC(=C)CC(=O)C=C(C)C [ipsdienone] here?
**A.** reaction product was pure (−)-ipsdienol

**Q.** With C=CC(=C)CC(O)C=C(C)C (racemic) [racemic ipsdienol, ipsdienol] as the molecule, how does the “reaction product of oxidation by Ipi12D04 enzyme” value (recombinant Ipi12D04; with NADP, GC and mass spectrum compared with ipsdienone standard) read?
**A.** converts racemic ipsdienol to ipsdienone

**Q.** What about the “attractiveness as aggregation pheromone” value [1] of the same molecule?
**A.** not attractive at all

**Q.** For C=CC(=C)CC(=O)CC(C)C [ipsenone], which “reaction product of reduction by Ipi12D04 enzyme (stereoisomer by chiral GC)” value (recombinant Ipi12D04) is on record?
**A.** reaction product was pure (−)-ipsdienol

**Q.** For C=CC(=C)C[C@@H](O)CC(C)C [ipsenol], which behavioural response (Ips. typographus) is on record?
**A.** anti-aggregation pheromone

**Q.** With C=CC(=C)CC(O)C=C(C)C (single isomer, unassigned; (+)) [(+)-ipsdienol] as the molecule, how does the “behavioural response (attraction / dispersal)” value (I. calligraphus) read?
**A.** dispersed

**Q.** For C=CC(=C)C[C@@H](O)CC(C)C [(+)-ipsenol], which “expected conversion by Ipi12D04 enzyme” value (recombinant Ipi12D04; enzyme incubated with both NAD(P) and NAD(P)H) is on record?
**A.** readily converted to (−)-ipsenol

**Q.** For C=CC(=C)CC(O)C=C(C)C (single isomer, unassigned; (-)) [(−)-ipsdienol, 2-methyl-6-methylene-2,7-octadien-4-ol], which “behavioural response (attraction / dispersal)” value (I. calligraphus) is on record?
**A.** attracted
